The target of data set [1] is T1, Intestinal-type alkaline phosphatase (Homo sapiens, UniProt P09923). As to the kind of experiment: activation of human intestinal alkaline phosphatase – biochemical, luminescent, uHTS hits, set 2, dose response (AID 488817).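 Note: potency of activators that raise enzyme activity.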 Type of data set: functional.
Data set [2] concerns the target T2, Long-chain-fatty-acid--AMP ligase FadD28 (Mycobacterium tuberculosis, UniProt P9WQ59).
T2 sequence (P9WQ59 whole entry): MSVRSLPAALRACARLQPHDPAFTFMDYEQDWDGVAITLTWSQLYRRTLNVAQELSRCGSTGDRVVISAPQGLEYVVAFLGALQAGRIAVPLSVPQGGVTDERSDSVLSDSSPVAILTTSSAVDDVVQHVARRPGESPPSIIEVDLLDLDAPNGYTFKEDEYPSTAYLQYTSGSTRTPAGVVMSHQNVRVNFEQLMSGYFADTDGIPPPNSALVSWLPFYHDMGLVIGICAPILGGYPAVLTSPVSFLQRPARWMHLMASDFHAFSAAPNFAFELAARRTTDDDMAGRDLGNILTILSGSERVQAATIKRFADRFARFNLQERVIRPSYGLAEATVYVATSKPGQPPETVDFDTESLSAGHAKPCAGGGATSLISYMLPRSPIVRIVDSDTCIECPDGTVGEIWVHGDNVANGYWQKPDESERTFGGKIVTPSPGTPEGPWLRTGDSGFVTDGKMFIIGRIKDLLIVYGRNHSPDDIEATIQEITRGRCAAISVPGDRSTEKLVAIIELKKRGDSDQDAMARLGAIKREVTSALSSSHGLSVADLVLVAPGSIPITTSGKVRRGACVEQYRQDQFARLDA
As to the kind of experiment: Fluorescence polarization aasay to screen for inhibitors that compete for the binding of FadD28 to a bisubstrate Measured in Biochemical System Using Plate Reader - 2147-01_Inhibitor_Dose_CherryPick_Activity. Type of data set: functional, Mycobacterium tuberculosis H37Rv. For orientation: In fluorescence polarisation assays a small probe gives low polarisation when free and higher when bound to something large.

In data set [3] the target is T1, Intestinal-type alkaline phosphatase. Kind of data set: human intestinal alkaline phosphatase activators, dose response, biochemical, luminescence, uHTS hits (AID 463120). Type of data set: functional.
For data set [4], the target named is Intestinal-type alkaline phosphatase (Mus musculus, UniProt P24822). As to the kind of experiment: PubChem AID 488874. The format is functional.
Chain of Intestinal-type alkaline phosphatase (Mus musculus, UniProt P24822) (P24822 whole entry): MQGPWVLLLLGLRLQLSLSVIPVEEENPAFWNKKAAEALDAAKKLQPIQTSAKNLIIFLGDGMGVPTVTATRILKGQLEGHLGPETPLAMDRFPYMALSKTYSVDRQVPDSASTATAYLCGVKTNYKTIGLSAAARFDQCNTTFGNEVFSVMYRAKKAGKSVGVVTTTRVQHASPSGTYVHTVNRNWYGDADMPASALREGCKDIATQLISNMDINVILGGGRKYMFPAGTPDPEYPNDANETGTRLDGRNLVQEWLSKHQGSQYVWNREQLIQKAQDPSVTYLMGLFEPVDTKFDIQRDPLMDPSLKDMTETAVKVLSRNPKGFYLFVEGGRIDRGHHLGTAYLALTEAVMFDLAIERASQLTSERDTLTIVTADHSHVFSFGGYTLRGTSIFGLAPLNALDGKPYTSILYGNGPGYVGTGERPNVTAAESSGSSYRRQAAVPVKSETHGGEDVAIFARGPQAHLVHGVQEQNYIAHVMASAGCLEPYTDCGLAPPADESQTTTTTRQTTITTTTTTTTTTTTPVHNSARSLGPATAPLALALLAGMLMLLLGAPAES
The target of data set [5] is T3, Alkaline phosphatase, tissue-nonspecific isozyme (Homo sapiens, UniProt P05186).
T3 sequence (P05186 whole entry): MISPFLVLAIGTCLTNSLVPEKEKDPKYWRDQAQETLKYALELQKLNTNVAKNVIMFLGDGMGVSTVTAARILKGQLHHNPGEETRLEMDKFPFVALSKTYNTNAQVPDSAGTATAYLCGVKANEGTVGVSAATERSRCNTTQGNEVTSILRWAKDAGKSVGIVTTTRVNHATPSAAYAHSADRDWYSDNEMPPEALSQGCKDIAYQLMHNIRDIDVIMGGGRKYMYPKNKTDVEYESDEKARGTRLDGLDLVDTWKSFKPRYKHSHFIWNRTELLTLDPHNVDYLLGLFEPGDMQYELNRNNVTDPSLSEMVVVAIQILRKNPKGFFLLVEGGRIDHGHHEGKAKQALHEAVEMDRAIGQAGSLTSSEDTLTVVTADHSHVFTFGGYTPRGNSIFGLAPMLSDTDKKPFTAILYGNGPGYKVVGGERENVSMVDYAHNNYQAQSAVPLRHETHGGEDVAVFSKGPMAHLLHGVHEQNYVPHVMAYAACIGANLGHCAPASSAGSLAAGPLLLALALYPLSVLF
Kind of data set: activation of tissue-nonspecific alkaline phosphatase – biochemical, TNAP isozyme, human IAP uHTS hits, selectivity assay for human IAP activator project, dose response (AID 488886).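 Note: potency of compounds raising TNAP activity as a selectivity check on IAP activators.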 Type of data set: functional.

Data set [6] addresses Peroxisome proliferator-activated receptor gamma/Nuclear receptor coactivator 2 (Homo sapiens, UniProt P37231). Kind of data set: TR-FRET dose response biochemical High Throughput Screening assay for agonists of the steroid receptor coactivator 2 (SRC-2) recruitment by the peroxisome proliferator-activated receptor gamma (PPAR gamma): non-selective agonists. [Related pubchem assays: 1297, 1032 ]. Type of data set: functional. (In general: In TR-FRET formats the signal depends on donor and acceptor labels being close together.)

Data set [7] deals with Peroxisome proliferator-activated receptor gamma/Nuclear receptor coactivator 3 (Homo sapiens, UniProt P37231). Kind of data set: TR-FRET dose response biochemical High Throughput Screening assay for agonists of the steroid receptor coactivator 3 (SRC-3) recruitment by the peroxisome proliferator-activated receptor gamma (PPAR gamma): non-selective agonists. [Related pubchem assays: 1301 (Confirmation screen.), 1048 (Primary screen.)]. The format is functional.
Chain of Peroxisome proliferator-activated receptor gamma/Nuclear receptor coactivator 3 (P37231 whole entry): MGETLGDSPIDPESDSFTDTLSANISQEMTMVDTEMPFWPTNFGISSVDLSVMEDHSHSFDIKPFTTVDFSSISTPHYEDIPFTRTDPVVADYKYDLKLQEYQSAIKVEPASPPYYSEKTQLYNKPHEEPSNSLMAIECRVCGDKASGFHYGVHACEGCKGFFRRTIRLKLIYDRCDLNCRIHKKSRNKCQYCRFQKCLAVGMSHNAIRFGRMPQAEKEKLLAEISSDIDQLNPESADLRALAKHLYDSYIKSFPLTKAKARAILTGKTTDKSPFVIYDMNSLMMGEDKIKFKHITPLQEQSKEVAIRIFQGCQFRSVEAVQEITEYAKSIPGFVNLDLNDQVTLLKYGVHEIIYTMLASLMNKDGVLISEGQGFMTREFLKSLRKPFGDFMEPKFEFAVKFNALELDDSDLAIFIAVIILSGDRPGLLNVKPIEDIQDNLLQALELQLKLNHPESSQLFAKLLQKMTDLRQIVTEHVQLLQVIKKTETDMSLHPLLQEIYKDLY
Chain of Peroxisome proliferator-activated receptor gamma/Nuclear receptor coactivator 3 (Q9Y6Q9 whole entry, further chain): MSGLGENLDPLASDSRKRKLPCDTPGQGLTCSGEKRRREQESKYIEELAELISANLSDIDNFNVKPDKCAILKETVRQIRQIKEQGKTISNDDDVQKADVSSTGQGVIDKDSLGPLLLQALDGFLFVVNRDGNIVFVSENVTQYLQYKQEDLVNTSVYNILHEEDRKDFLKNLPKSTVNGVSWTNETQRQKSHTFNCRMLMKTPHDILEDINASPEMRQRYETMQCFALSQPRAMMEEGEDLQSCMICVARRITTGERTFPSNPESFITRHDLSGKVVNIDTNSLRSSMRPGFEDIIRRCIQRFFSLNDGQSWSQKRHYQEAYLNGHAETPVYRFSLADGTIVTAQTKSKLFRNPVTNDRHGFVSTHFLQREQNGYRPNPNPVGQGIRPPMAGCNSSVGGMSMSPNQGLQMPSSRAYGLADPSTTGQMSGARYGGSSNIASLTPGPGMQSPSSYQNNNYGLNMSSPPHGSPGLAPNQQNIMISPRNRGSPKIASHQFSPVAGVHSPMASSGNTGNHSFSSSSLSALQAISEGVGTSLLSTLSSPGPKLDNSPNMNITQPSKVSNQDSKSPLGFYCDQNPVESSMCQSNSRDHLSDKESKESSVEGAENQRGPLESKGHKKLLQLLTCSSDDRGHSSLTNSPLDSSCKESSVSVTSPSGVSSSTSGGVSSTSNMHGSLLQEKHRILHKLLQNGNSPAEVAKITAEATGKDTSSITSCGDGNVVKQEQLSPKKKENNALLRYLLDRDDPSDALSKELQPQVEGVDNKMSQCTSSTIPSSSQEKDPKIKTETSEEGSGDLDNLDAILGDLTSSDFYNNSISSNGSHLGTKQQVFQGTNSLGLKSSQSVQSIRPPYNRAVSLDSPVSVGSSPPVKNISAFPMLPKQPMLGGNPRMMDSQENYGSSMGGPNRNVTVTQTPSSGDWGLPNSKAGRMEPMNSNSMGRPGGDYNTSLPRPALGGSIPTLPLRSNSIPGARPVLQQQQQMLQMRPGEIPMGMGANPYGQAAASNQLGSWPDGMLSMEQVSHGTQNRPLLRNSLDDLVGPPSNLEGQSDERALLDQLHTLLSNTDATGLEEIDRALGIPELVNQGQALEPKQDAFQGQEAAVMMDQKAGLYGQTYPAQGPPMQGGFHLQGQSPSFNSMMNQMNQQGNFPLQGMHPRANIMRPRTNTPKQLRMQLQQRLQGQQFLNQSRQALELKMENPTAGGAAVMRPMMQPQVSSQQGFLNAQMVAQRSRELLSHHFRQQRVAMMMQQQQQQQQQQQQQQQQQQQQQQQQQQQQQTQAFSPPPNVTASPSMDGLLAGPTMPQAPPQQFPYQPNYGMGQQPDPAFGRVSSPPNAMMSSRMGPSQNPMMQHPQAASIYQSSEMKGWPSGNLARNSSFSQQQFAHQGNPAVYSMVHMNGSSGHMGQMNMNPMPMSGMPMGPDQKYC

In data set [8] the target is T4, Ubiquitin-conjugating enzyme E2 N (Homo sapiens, UniProt P61088).
T4 sequence (P61088 whole entry): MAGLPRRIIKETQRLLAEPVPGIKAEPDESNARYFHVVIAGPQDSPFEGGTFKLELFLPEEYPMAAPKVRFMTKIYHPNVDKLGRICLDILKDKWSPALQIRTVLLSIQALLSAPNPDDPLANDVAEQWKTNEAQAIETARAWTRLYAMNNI
The format is functional.

Data set [9] addresses Peroxisome proliferator-activated receptor gamma/Nuclear receptor coactivator 1 (Homo sapiens, UniProt P37231). Kind of data set: TR-FRET dose response biochemical High Throughput Screening assay for agonists of the steroid receptor coactivator 1 (SRC-1) recruitment by the peroxisome proliferator-activated receptor gamma (PPAR gamma): non-selective agonists. [Related pubchem assays (depositor defined):AID1300, AID1808, AID504735, AID631]. The format is protein assay.

Data set [10] in a line: HEK-293T cell viability reduction – luminescence, B-cell screen hits, cytotoxicity control for BCR NF-kB inhibitor project, dose response (AID 489021).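 Note: HEK-293T cells carrying an NF-kB luciferase reporter; cells exposed to compound for about 14 hours before viability readout.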 The format is functional, cell-based.
Data set [11] concerns the target T4, Ubiquitin-conjugating enzyme E2 N. The format is functional. The source holds these as a separate data set.
Another data set addresses T5, Bcl-2-related protein A1 (Mus musculus, UniProt Q07440).
T5 sequence (Q07440 whole entry): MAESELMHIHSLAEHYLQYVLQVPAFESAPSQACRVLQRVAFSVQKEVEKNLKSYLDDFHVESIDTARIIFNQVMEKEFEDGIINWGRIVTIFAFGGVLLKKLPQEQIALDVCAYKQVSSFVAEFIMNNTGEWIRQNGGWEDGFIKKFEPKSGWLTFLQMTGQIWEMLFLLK
The format is functional.

Another data set addresses Hexokinase-1 (Homo sapiens, UniProt P19367). Kind of data set: HK1 enzyme activation by HKDC1 hits – biochemical, selectivity assay for HKDC1 activator project, dose response (AID 504762). Type of data set: functional.
The target of another data set is Hexokinase HKDC1 (Homo sapiens, UniProt Q2TB90). As to the kind of experiment: activation of HKDC1 glucose phosphorylation – biochemical, W721R variant, dose response (AID 504730). Type of data set: functional.
The target of data set [12] is 72 kDa type IV collagenase (Homo sapiens, UniProt P08253). Kind of data set: Dose Response validation of uHTS RPN11 inhibitor hits using a MMP-2 Fluorescence assay. Type of data set: functional.
Data set [13] deals with 26S proteasome non-ATPase regulatory subunit 14 (Homo sapiens, UniProt O00487). Kind of data set: inhibition of proteasome subunit RPN11 – biochemical, fluorescence polarization, uHTS hits, confirmation (AID 602368). Type of data set: functional.
Another data set has as its target Prothrombin (Bos taurus, UniProt P00735). As to the kind of experiment: thrombin protease inhibitors – biochemical, fluorescence polarization, uHTS hits, dose response (AID 602369). The format is functional.
A further data set addresses T6, Cytochrome P450 1A2 (Homo sapiens, UniProt P05177).
T6 sequence (P05177 whole entry): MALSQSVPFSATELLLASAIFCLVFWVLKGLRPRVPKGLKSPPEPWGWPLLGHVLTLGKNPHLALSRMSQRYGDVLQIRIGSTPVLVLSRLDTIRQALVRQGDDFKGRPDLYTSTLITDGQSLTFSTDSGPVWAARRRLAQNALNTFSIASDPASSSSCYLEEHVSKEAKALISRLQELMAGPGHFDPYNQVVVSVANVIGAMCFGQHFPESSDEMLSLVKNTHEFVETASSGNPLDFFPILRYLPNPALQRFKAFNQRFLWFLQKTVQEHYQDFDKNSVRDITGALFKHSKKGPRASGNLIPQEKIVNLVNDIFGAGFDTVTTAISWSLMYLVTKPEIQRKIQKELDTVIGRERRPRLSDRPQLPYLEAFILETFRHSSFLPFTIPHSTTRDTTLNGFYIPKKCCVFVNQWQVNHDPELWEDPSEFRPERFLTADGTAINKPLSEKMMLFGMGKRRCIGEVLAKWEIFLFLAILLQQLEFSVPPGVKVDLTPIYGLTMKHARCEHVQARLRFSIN

A further data set addresses Cytochrome P450 3A4 (Homo sapiens, UniProt P08684).
The next data set has as its target Cytochrome P450 2C9 (Homo sapiens, UniProt P11712).
The target of another data set is Cytochrome P450 2C19 (Homo sapiens, UniProt P33261). As to the kind of experiment: Cytochrome panel assay with activity outcomes. Panel member name: p450-cyp2c19 Compounds with AC50 equal or less than 10 uM are considered active. Particulars: read-out: AC50. Type of data set: functional.
The next data set deals with Escherichia coli. Kind of data set: microbe, parasite or virus in culture.

The source made the active and inactive calls.

T1 sequence (P09923 whole entry): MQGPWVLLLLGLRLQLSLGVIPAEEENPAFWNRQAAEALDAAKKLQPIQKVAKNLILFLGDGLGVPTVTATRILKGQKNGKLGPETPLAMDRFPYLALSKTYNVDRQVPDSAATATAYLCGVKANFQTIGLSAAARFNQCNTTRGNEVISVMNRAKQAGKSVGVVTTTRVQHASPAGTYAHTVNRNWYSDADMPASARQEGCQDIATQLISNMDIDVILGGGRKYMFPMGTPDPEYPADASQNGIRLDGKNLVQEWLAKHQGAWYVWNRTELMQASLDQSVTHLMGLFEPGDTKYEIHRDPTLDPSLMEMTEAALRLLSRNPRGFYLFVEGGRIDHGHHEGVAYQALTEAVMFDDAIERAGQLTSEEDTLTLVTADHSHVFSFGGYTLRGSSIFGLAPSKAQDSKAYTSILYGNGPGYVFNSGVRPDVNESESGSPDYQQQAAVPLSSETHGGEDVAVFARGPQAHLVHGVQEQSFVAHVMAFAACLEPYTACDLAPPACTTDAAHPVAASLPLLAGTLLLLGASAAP
Chain of Peroxisome proliferator-activated receptor gamma/Nuclear receptor coactivator 2 (P37231 whole entry): as the sequence (P37231 whole entry) above
Chain of Peroxisome proliferator-activated receptor gamma/Nuclear receptor coactivator 2 (Q15596 whole entry, further chain): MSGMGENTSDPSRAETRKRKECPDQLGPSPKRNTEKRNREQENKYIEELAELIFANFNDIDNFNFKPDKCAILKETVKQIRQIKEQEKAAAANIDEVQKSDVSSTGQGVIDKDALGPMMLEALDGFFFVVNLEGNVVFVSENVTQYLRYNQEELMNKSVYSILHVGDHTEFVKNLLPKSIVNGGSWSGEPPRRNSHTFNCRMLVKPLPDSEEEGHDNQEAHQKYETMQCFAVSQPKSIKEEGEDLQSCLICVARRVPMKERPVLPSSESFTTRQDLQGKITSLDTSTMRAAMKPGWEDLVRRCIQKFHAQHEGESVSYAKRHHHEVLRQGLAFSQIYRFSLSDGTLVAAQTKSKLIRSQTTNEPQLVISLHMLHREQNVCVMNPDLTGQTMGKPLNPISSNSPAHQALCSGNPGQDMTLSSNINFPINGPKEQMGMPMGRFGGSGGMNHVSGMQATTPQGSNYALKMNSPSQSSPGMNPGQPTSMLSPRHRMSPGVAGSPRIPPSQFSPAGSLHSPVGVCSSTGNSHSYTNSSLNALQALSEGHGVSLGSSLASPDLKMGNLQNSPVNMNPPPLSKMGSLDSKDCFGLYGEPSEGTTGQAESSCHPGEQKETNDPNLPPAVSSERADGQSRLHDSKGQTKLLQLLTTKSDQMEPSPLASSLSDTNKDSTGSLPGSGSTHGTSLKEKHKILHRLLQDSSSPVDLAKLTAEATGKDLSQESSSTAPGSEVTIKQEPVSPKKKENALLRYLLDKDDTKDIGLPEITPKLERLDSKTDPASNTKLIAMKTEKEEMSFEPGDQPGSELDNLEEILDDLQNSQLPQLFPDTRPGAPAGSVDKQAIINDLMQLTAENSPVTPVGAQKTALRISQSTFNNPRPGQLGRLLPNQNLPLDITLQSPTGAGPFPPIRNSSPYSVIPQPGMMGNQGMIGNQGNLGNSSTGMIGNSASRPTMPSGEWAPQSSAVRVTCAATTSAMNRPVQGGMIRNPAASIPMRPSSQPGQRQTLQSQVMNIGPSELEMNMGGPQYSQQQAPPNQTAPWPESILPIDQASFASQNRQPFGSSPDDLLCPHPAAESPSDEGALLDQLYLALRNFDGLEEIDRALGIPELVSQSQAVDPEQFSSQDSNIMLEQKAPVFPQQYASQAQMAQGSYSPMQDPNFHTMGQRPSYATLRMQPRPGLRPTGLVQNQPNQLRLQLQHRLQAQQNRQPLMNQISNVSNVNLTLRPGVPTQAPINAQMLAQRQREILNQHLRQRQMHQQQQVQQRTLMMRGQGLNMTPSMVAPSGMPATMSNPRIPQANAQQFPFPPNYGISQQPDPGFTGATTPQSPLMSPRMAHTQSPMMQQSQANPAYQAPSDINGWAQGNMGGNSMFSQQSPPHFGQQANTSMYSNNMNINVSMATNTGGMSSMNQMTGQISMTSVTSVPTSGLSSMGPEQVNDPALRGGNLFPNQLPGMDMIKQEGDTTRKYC

Broadly, the EC50 is the concentration at which the effect is half-maximal. Broadly, the AC50 is the concentration giving half of the maximal activity seen. As a reminder, the IC50 is the point on the concentration scale where inhibition reaches its midpoint. For `CN(C)S(=O)(=O)c1cccc(NC(=S)NNC(=O)c2cc3ccccc3cc2O)c1`, the half-maximal effective concentration (EC50) is 16.1 µM (active) in data set [1], 8.74 µM (active) in [3] and 12.5 µM (active) in data set [5]. In addition, the AC50 in data set [2] is 77.8 µM (active). The concentration for half-maximal inhibition (IC50) in data set [4] is 34.2 µM (active).
With `CCN1CCN(C(=O)CSc2cc(=O)n(CC)c3ccccc23)CC1`, the concentration giving a half-maximal response (EC50) was > 79.4 µM (not active) in data set [6], > 79.4 µM (not active) in [7] and > 79.4 µM (inactive) in data set [9]. Besides, the IC50 is > 20 µM (inactive) in data set [8] and > 80 µM (inactive) in data set [10].
For the compound `CC(C)(C)OC(=O)N1CCC(NC(=O)c2[nH]cnc2C(=O)Nc2ccon2)CC1`, the EC50 is 13.3 µM (active) in data set [1], 10.1 µM (active) in data set [3] and 13.9 µM (active) in [5]. For the same compound, in data set [4], the half-maximal inhibitory concentration (IC50) is 47.2 µM (active).
For the compound `O=C(CCCn1c(=O)c2ccccc2n(Cc2cccc(F)c2)c1=O)NC1CCN(Cc2ccccc2)CC1`, the IC50 in data set [11] was 1.31 µM (active); at Bcl-2-related protein A1, > 20 µM (inactive); in data set [8], 2.11 µM (active).
For the compound `CCOC(=O)CSc1cc(=O)n(CC)c2ccccc12`, the EC50 in data set [6] was > 79.4 µM (not active); in [7], > 79.4 µM (not active); in [9], > 79.4 µM (inactive).
For `COc1ccc(-c2[nH]c(-c3ccc(SC)cc3)nc2SCC(=O)Nc2nccs2)cc1`, the concentration for a half-maximal effect (EC50) was 16.3 µM (active) on Hexokinase-1 and 10.9 µM (active) at Hexokinase HKDC1. Also, the IC50 in data set [12] was > 100 µM (inactive); in data set [13] it was 19.6 µM (active); at Prothrombin it was 49.9 µM (active).
Consider `Cc1cnc(CNc2cc(-c3ccccc3C(F)(F)F)ncn2)cn1`, for which the AC50 at Cytochrome P450 1A2 was 25.1 µM (inconclusive); at Cytochrome P450 3A4, “inconclusive”; on Cytochrome P450 2C9, “inconclusive”; on Cytochrome P450 2C19, 39.8 µM (inconclusive).
For the compound `Cc1ccc(S(=O)(=O)CCNC(=O)Cc2ccc(Cl)cc2)cc1`, the AC50 with Escherichia coli is 46.1 µM (active).
Same read-out and setting: with `CCc1ccc2c(COC(=O)C3CC(=O)N(CCc4ccccc4)C3)cc(=O)oc2c1` (centres undefined) the figure was 133 µM (active).
Turning to `COCCNc1nc2c(-c3cccc(C(F)(F)F)c3)nnn2c2ccccc12`, the values for the IC50 (in data set [11]; at Bcl-2-related protein A1; in data set [8]) were > 20 µM (inactive), > 20 µM (inactive) and 10.3 µM (active), respectively.
